Laboratory results reported in PMC4260745, “Modulation of A1 and A2B adenosine receptor activity: a new strategy to sensitise glioblastoma stem cells to chemotherapy” (Cell Death & Disease, 2014).

Target: T1, A2BAR (A2B adenosine receptor) (Homo sapiens, UniProt P29275)
T1 construct: gene ADORA2B
T1 sequence (P29275 1-332): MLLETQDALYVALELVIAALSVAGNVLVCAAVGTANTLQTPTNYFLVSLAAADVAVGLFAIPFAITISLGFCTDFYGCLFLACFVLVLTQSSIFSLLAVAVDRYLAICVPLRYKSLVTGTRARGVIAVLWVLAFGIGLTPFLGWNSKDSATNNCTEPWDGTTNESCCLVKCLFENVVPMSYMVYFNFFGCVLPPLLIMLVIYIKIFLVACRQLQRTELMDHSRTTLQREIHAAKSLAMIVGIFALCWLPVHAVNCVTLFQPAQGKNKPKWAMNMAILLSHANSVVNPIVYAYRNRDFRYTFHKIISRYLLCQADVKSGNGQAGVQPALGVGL
Test: […]GTPγS binding, membranes of U343MG-derived CSCs (endogenous receptor)
Assay type: biochemical

N#Cc1c(N)nc(SCC(N)=O)c(C#N)c1-c1ccc(OCC2CC2)cc1 [BAY606583, 2-[6-Amino-3,5-dicyano-4-[4-(cyclopropylmethoxy)-phenyl]pyridin-2-ylsulfanyl]acetamide]
EC50: 1.9 ± 0.2 nM
